Our source for the inhibition and fold change (FC) values is ChEMBL document CHEMBL5653631, “A Potent and Selective ULK1 Inhibitor Suppresses Autophagy and Sensitizes Cancer Cells to Nutrient Stress” (iScience, 2018).

In assay [1] the target is Serine/threonine-protein kinase MRCK alpha (Homo sapiens) (UniProt Q5VT25). As to the kind of experiment: Inhibition of human recombinant MRCKa at 40 nM in presence of ATP by radiometric assay relative to control.
The target of assay [2] is Mitogen-activated protein kinase kinase kinase 20 (Homo sapiens) (UniProt Q9NYL2). Put plainly: Inhibition of human recombinant ZAK at 40 nM in presence of ATP by radiometric assay relative to control.
Assay [3] deals with Mitogen-activated protein kinase 10 (Homo sapiens) (UniProt P53779). Put plainly: Inhibition of human recombinant JNK3 at 500 nM in presence of ATP by radiometric assay relative to control.
In assay [4] the target is T1, Serine/threonine-protein kinase DCLK2 (Homo sapiens) (UniProt Q8N568).
T1 sequence (whole entry): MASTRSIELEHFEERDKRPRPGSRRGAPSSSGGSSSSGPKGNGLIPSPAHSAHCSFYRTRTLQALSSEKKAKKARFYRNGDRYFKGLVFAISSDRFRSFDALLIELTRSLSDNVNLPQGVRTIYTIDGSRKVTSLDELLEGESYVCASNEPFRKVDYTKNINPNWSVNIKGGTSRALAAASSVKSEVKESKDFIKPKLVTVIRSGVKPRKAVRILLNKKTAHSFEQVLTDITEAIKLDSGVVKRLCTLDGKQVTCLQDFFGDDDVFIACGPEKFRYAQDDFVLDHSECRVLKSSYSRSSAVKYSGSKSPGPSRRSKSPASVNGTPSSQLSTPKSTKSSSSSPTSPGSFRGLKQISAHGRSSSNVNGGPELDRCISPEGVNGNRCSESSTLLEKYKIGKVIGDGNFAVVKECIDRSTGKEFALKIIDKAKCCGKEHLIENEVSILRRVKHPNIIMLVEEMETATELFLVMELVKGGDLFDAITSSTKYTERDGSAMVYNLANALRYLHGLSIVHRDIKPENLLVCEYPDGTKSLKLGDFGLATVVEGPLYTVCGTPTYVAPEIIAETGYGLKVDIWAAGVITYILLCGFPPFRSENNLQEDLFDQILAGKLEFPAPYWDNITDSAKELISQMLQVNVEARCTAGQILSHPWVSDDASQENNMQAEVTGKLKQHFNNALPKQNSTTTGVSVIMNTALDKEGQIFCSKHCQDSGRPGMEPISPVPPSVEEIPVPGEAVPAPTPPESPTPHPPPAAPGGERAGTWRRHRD
Put plainly: Inhibition of human recombinant DCAMKL2 at 15 nM in presence of ATP by radiometric assay relative to control.

The target in assay [5] is Serine/threonine-protein kinase PRP4 homolog (Homo sapiens) (UniProt Q13523). Put plainly: Inhibition of human recombinant PRP4 at 15 nM in presence of ATP by radiometric assay relative to control.
In assay [6] the target is T2, Beta-adrenergic receptor kinase 1 (Homo sapiens) (UniProt P25098).
T2 sequence (whole entry): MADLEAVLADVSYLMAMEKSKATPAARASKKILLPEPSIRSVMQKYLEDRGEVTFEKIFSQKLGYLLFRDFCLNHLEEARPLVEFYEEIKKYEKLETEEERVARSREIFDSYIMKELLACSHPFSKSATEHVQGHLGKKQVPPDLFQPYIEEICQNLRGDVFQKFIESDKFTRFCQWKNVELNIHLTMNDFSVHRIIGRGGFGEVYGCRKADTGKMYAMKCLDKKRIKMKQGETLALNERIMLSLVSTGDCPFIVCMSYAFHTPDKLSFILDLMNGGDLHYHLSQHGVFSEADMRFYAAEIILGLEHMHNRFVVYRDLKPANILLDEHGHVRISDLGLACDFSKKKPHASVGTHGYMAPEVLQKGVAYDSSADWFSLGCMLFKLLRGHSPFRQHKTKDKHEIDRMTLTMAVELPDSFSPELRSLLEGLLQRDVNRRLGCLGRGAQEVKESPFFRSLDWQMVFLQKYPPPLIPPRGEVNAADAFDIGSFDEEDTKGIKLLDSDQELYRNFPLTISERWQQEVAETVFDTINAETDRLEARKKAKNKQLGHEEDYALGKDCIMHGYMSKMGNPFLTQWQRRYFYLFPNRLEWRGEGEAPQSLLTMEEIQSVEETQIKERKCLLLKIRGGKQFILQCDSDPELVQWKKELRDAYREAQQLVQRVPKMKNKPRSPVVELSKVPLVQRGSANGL
As to the kind of experiment: Inhibition of human recombinant BARK1 at 15 nM related to control ULK1.

Assay [7] deals with Activin receptor type-2A (Homo sapiens) (UniProt P27037). Put plainly: Inhibition of human recombinant ACTR2 at 15 nM in presence of ATP by radiometric assay relative to control.

Usually inhibition stands for the percentage by which the read-out fell short of the control. Regarding `O=C(N[C@@H](C1CC1)C(F)(F)F)c1cc(-c2cnn3cc(-c4ccc(F)cc4)cnc23)cs1`, the figures for the inhibition in assay [1] and in assay [2] were 2% and 0%, respectively.
Turning to `CNC(=O)c1ccccc1Oc1nc(Nc2cc(OC)c(OC)c(OC)c2)ncc1Br`, in assay [3], the inhibition was determined as 3%.
On to `CC(C)[C@H](NC(=O)c1cc(-c2cnn3cc(-c4ccc(OCCN5CCCCC5)cc4)cnc23)cs1)C(F)(F)F`, for which the values for the inhibition in assay [4], in assay [5] and in assay [7] were 12%, 6% and 4%, respectively. Also, in assay [6], the fold change (FC) stood at 0.
